Where two headings read alike, the source gives them in different places. Values belong to the molecule of their own block, whether it stands above or below them.
Legend:
[1] = Negative-stain TEM of self-assembled peptide fibrils (width, length, morphology); format: physicochemical; settings: for fibril width: assembled in water, 10 µM on grid, n = 200 measurements from 30 fibrils; for self-assembly / fibril morphology (in words): in water, identical preparation conditions
Procedure: Peptide solutions (10 µM; diluted in UPW from fibrillated peptide solutions as stated above) were applied directly to 200‐mesh, carbon‐coated copper grids for 2 min and stained with 1% uranyl formate for 1 min. Excess stain and the peptide solution were blotted using filter paper, and grids were washed thrice with UPW. Darkfield images were acquired on a JEOL (Akishima, Japan) JEM‐2100F Field‐Emission STEM microscope at an accelerating voltage of 120 kV.
Individual fibers were selected for measurement, avoiding aggregates. The width of each fiber was measured using the line tool by drawing a line across the fiber's width at an angle approximately perpendicular (90°) to its orientation to ensure accuracy. Similar measurements were done to calculate the length of the fibrils. The start and end points of the line were determined based on the contrast between the fiber and the surrounding background. […]

[2] = comparison values for longer KFE peptides; ref [14], [37]; cited from earlier work
Excerpt: All the KFE5 peptide SAXS curves fit simple shape models of long polydisperse rods plus smaller globular components (Figure 5A). The characteristics of these rods, extracted from fitting to a Guinier‐plate model, are almost identical with an average rod or tape thickness estimated at 31.9(1) Å (Figure 5B). This is similar to our previously measured values for KFE8 and KFE12 [14, 37]. This thickness, which includes contributions from the solvent layer, matches the β‐sheet sandwich model. This appears to be a common feature of the KFE peptides that is not disrupted by the modification of the ...

[3] = Gelation, rheology (G′, G″) and viscosity of peptide solutions; format: physicochemical; settings: for Gel Formation: 5 mM peptide concentration, in deionized water; for viscosity (in words): 5 mM peptide solutions, shear rate 100 s^-1, n = 4
Procedure: An ARES 2000ex rotational rheometer (TA Instruments, New Castle, DE) was used to evaluate the viscosity and viscoelastic properties of the peptides. Peptides were freshly solubilized in deionized water at 5 mM and allowed to incubate for 10 min to allow for complete solubilization. Next, 170 µL of each peptide solution was pipetted directly onto the rheometer stage. A 20 mm parallel plate geometry was lowered to a gap of 200 µm. Storage modulus (G′) and loss modulus (G″) were measured as a function of strain amplitude of 0.05–50% at an angular frequency of 10 rad/s to determine the linear viscoelastic region. Next, G′ and G″ were measured as a function of angular frequency (1–10 rad/s) at a strain of 1%. […] Separately, a Hagen‐Poiseuille viscometer (microVISC, Rheosense, San Ramon, CA) was used at a shear rate of 1000 s^−1 to validate measured viscosity trends.

[4] = Small-angle X-ray scattering (SAXS) of peptide assemblies; format: physicochemical; settings: 4 mg/mL in deionized water (CN 2 mg/mL), 10°C, Debye‐Bueche fit 0.015–0.10 Å^−1
Procedure: SAXS data of the KFE5 X‐phenyl substituted peptide solutions were collected using a Rigaku (Woodlands, TX) BioSAXS‐1000 camera on an FRE^++ X‐ray generator with an ASC‐96 Automated Sample Changer held at 10°C. A matching buffer was collected for each sample. The detector was calibrated using a silver behenate powder sample, following the manufacturer's recommended procedure. The SAXS samples (KFE5 and its variants) were prepared by dissolving […] of lyophilized peptide in 400 µL of deionized water to produce a final concentration of 4 mg/mL. The samples were then vortexed, and precipitants were removed by centrifugation at […] for 5 min. Although the samples formed gels, these remained fluid under hydrostatic pressure, permitting pipetting by the ASC‐96 liquid handling system. The cyano variant of KFE5 was an exception. It remained a gel at 4 mg/mL and needed to be diluted to 2 mg/mL to be pipetted or flowed in the ASC‐96 liquid sample handling system. Processing was performed in SAXSLab (Rigaku) and SAXNS‐ES (https://xray.utmb.edu/SAXNS). Analyses were performed in Primus/GNOM [81], BIFT [82, 83], and gnuplot (http://www.gnuplot.info).

[5] = Thioflavin T (ThT) fluorescence assay of fibrils; format: physicochemical; settings: 50 µM peptide, ThT 10 µM, ex 440 nm / em 485 nm, n = 4
Procedure: For ThT assays, 50 µM fibrillated peptide solutions (diluted in UPW from fibrillated peptide solutions as stated above) were mixed with 20 µM ThT solution, and fluorescence was monitored at 485 nm upon excitation at 440 nm in a 96‐well plate using a Synergy HT plate reader (Biotek, USA). The OVA‐conjugated peptide fibrils were used to assess long‐term stability over a 7‐day period.

[6] = system: mouse bone-marrow dendritic cells (DCs); assay: Cytokine and chemokine release from BMDC cultures treated with nanofibers; format: cell-based; settings: BMDCs treated with peptide nanofibers 10 μM for 24 h, supernatant analysed
Procedure: The femurs and tibiae of mice of C57BL/6 mice were flushed, and single‐cell suspensions were prepared, following removal of red blood cells (RBCs) using lysis buffer (Invitrogen, USA). After washing twice using HBSS (Hanks balanced salt solution), cells were differentiated for 7–9 days in complete Roswell Park Memorial Institute (RPMI) 1640 media containing heat‐inactivated Fetal bovine serum (FBS) (10%), β‐mercaptoethanol (55 µM), sodium pyruvate (1 mM), 10 mM 4‐hydroxyethylpiperazine ethane sulfonic acid (HEPES), 1× MEM (Minimum Essential Medium) non‐essential amino acids, 20 ng/mL granulocyte‐macrophage colony‐stimulating factor (GM‐CSF), 5 ng/mL IL‐4 and 100 µg/mL Penicillin‐Streptomycin (pen‐strep) in 150 mm dish (25 mL/dish) in an incubator at standard conditions (37°C and 5% CO2). Cells were harvested using gentle washing with MEM media between days 7–9 for experiments.
[picture] Figure S16. Cytokines and chemokines production in mouse bone-marrow dendritic cells (DCs) treated with peptide nanofibers (10 μM) for 24 h.

[7] = target: the molecule itself; assay: negative-stain TEM; peptide solutions 10 µM, diluted in ultrapure water from fibrillated 1 mM stocks, on carbon-coated copper grids, 1% uranyl formate

fibril width [1]: 8–10 nm
self-assembly / fibril morphology (in words) [1]: thin nanofibrils
Molecule: CC(=O)N[C@@H](Cc1ccccc1)C(=O)N[C@@H](CCCCN)C(=O)N[C@@H](Cc1ccccc1)C(=O)N[C@@H](CCC(=O)O)C(=O)N[C@@H](Cc1ccccc1)C(=O)N[C@@H](CCCCN)C(=O)N[C@@H](Cc1ccccc1)C(=O)N[C@@H](CCC(=O)O)C(N)=O [KFE8, reference compound]
gel inhomogeneity‐correlation length (ζ) [2]: 25 Å

fibril width [1]: 50–100 nm
self-assembly / fibril morphology (in words) [1]: broader tape‐like structures
Gel Formation [3]: No
gel inhomogeneity‐correlation length (ζ) [4]: about 58 Å
Molecule: Ac-FKFEF-NH2 [KFE5, Ac‐FKFEF‐Am]
viscosity (in words) [3]: highest viscosity among the non‐gelling derivatives

self-assembly / fibril morphology (in words) [1]: complete ablation
ThT fluorescence intensity (in words) [5]: lowest and comparable to ThT alone
Gel Formation [3]: No
viscosity (in words) [3]: lowest viscosities
storage modulus G′, fold lower than parent peptide ([3]; 5 mM peptide, strain 1%, angular frequency 10 rad/s, n = 3): approximately 2.5 fold
Molecule: Ac-YKYEY-NH2 [KFE5(OH)]
cytokine and chemokine release profile (in words) [6]: release of MIP‐1α and MIP‐1β without TNF‐α secretion

B1: KFE5 (Ac-FKFEF-Am) (peptide)
peptide: Ac-FKFEF-NH2
notes: designed amphipathic pentapeptide, truncated variant of KFE8; also called KFE5(H); source: synthetic peptide (Fmoc-SPPS on Rink Amide resin, HPLC purified)
binding result [7]: binds

B2: KFE8 (Ac-FKFEFKFE-Am) (peptide)
peptide: Ac-FKFEFKFE-NH2
notes: designed amphipathic octapeptide; also called double repeat of FKFE
binding result [7]: binds

From paper PMC13042944, “Substituent‐Based Modulation of Self‐Assembly and Immunogenicity of Amphipathic Peptides” (Advanced Science, 2026)
